Data from patent US20070031872A1, “A141S and G399S mutation in the Omi/HtrA2 protein in Parkinson's disease” (priority 2004, published 2007).
Peptide text beside a SMILES is read from it. * marks the point of attachment. Cbz = O=C(OCc1ccccc1)*

What was measured:
Format in all cases: cell-based
[1] = system: HEK293 cells which expressed the exon 1, i.e. G421T, mutation (A141S) of Omi/HtrA2; assay: Cytotoxicity test (LDH release) using MG132; settings: 3.0 μM MG132, 24 hours; A141S cells vs wild-type HEK293 cells; FIG. 8
Method: (§1) In order to analyze the pathogenetic relevance of the two mutations found in the Omi/HtrA2 gene, the cytotoxicity test was used to investigate whether cells which express the correspondingly genetically modified Omi/HtrA2 protein are more sensitive to cytotoxins, i.e. undergo apoptosis more frequently with corresponding exposure.
(§2) This test was carried out using the cytotoxicity detection kit (LDH) supplied by Roche. The measure of apoptosis used in this case is the lactate dehydrogenase (LDH) released from the cytosol of the apoptotic cells into the surrounding medium after contact with the toxins. This LDH in turn is determined via conversion of a tetrazolium salt into formazan, which can be measured through a change in color from yellow (tetrazolium salt) to red (formazan) using an ELISA reader at a wavelength of 490 nm. The absorption at 650 nm is measured as reference comparison. […]
(§3) In order to detect the total amount of LDH, which is related to the total number of cells per well, then 50 μl of 10% Triton X-100 solution were pipetted into each well in order to lyse the cells which were still alive. […] 100 μl of LDH assay medium were then put in each well to be measured of the 96-well plate and incubated at room temperature for 20 minutes.
(§4) After this incubation time had elapsed, the reaction was stopped by adding 50 μl of 1 N HCl (Sigma) and measured using the ELISA reader. […]

[2] = system: HEK293 cells which expressed the exon 7, i.e. the G1195A, mutation (G399S) of Omi/HtrA2; assay: Cytotoxicity test (LDH release) using staurosporin; settings: 0.5 μM staurosporin, 6 hours; G399S cells vs wild-type HEK293 cells; FIG. 7
Method: as §1, §2, §3, §4

[3] = system: SH-SY5Y cells which stably express mutated (S141 or S399) Omi/HtrA2; assay: Mitochondrion function test: mitochondrial membrane potential by JC-1 FACS analysis; settings: 0.5 μM staurosporin, 4 hours, FIG. 9
Method: The mitochondrial membrane potential was measured by FACS analysis (flow cytometer) using JC-1, as marker of mitochondrial homeostasis in SH-SY5Y cells which stably express the wild-type or mutated (S141 or S399) Omi/HtrA2.
JC-1 is a green fluorescent dye which can be employed to measure the mitochondrial membrane potential. It has the property of diffusing through cellular membranes and is moreover in the form of a monomer which fluoresces green on excitation with a 488 nm laser. In intact mitochondria there is accumulation of the dye owing to the mitochondrial membrane potential, and thus JC-1 aggregates form. The aggregate now re-emits in a red fluorescent wavelength the excitation light and can thus be clearly distinguished both under a microscope and in a flow cytometer from the green fluorescent monomers. […]
In order to differentiate the cell population between green and red fluorescence and to make the adjustment in the flow cytometer, cells without JC-1, with JC-1 and cells with JC-1 treated with CCCP were used. […] It was thus possible after the staining readily to excite only the green fluorescence of the JC-1 monomers, owing to treatment with CCCP. After adjustment of the assay in the flow cytometer, the samples were then measured and evaluated. […]

| Structure (SMILES) | sensitivity to MG132 relative to wild-type HEK293 cells (LDH release, proportion of dead cells) [1] | sensitivity to staurosporin relative to wild-type HEK293 cells (LDH release, proportion of dead cells) [2] | decline in the mitochondrial membrane potential (ΔΨm loss) compared with wild-type cells ([3]; Omi/HtrA2 S141 cells) | decline in the mitochondrial membrane potential (ΔΨm loss) compared with wild-type cells ([3]; Omi/HtrA2 S399 cells) |
| --- | --- | --- | --- | --- |
| CC(C)C[C@@H](C=O)NC(=O)[C@H](CC(C)C)NC(=O)[C@H](CC(C)C)NC(=O)OCc1ccccc1 [MG132] (Cbz-Leu-Leu-Leu-aldehyde) | approximately 1.4 times | – | – | – |
| CN[C@@H]1C[C@H]2O[C@@](C)([C@@H]1OC)n1c3ccccc3c3c4c(c5c6ccccc6n2c5c31)C(=O)NC4 [staurosporin] | – | more than five times more sensitive | distinct decline in the mitochondrial membrane potential | distinct decline in the mitochondrial membrane potential |
